Biological target: T1, human GPR131 (Homo sapiens, UniProt Q8TDU6)
T1 construct: expressed in transfected cells
T1 sequence (Q8TDU6 1-330): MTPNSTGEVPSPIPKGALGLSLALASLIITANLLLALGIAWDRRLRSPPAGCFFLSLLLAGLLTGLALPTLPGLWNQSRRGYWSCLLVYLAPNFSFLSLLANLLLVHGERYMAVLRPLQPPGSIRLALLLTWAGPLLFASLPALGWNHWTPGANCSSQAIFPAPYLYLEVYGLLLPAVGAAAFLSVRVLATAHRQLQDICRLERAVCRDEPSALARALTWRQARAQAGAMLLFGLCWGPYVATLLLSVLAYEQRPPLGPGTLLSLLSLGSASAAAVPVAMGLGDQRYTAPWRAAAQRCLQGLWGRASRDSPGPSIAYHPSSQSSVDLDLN
Experiment: Stimulation of cAMP in stable cell line expressing human GPR131 (FRET cAMP kit)
Assay type: cell-based
Conditions: 0.5 h; 1.1 μM compound, relative to maximal stimulatory activity of lithocholic acid at 3.3 μM; 30 minutes at 37° C.; read-out: Percent Activity @ 1.1 μM (of 3.3 uM LCA) (%)
Experimental: This assay was developed using a stable cell line expressing human GPR131.
To measure cAMP activity in response to GPR131 agonists, GPR131 cells suspended in DMEM/F12 medium with 1 mM IBMX were seeded in 384 well plates at 5000 cells per well. After incubating with test compounds at 37° C. for 30 minutes cAMP was measured using a fluorescene resonance energy transfer cAMP kit from Cis Bio (Bedford, Mass.) according to the manufacturer's instructions. Briefly, cells were lysed, and cAMP levels determined by competitive immunoassay using D2 labeled cAMP, and europium cryptate tagged anti cAMP antibody. Decreases in the FRET signal (fluorescence ratio (665 nm/620 […]) correspond to increases in intracellular cAMP levels.
Activities of test compounds in Table 1 below are expressed as % activity at 1.1 μM compound compared to the maximal stimulatory activity of lithocholic acid (LCA) (determined at 3.3 μM LCA)

SMILES | activation at 1.1 µM [%]
Cc1cnccc1CN(C)C(=O)c1cnc(SCc2c(F)ccc(F)c2F)n1-c1ccc(F)cc1 [Compound 502, 1-(4-Fluorophenyl)-N-methyl-N-((3-methylpyridin-4-yl)methyl)-2-((2,3,6-trifluorobenzyl)thio)-1H-imidazole-5-carboxamide] | 100
Cc1nn(C)cc1CN(C)C(=O)c1cnc(SCc2c(F)ccc(F)c2F)n1-c1ccc(F)cc1 [Compound 505, N-((1,3-Dimethyl-1H-pyrazol-4-yl)methyl)-1-(4-fluorophenyl)-N-methyl-2-((2,3,6-trifluorobenzyl)thio)-1H-imidazole-5-carboxamide] | 99
CN(Cc1ccncc1)C(=O)c1cnc(SCc2cc(Cl)ccc2F)n1-c1ccc(F)cc1 [Compound 616, 2-((5-Chloro-2-fluorobenzyl)thio)-1-(4-fluorophenyl)-N-methyl-N-(pyridin-4-ylmethyl)-1H-imidazole-5-carboxamide] | 100
CN(Cc1ccncc1)C(=O)c1cnc(SCc2c(F)ccc(F)c2Cl)n1-c1ccc(F)cc1 [Compound 617, 2-((2-Chloro-3,6-difluorobenzyl)thio)-1-(4-fluorophenyl)-N-methyl-N-(pyridin-4-ylmethyl)-1H-imidazole-5-carboxamide] | 99
CN(Cc1ccncc1)C(=O)c1cnc(SCc2cc(F)c(F)cc2Cl)n1-c1ccc(F)cc1 [Compound 618, 2-((2-Chloro-4,5-difluorobenzyl)thio)-1-(4-fluorophenyl)-N-methyl-N-(pyridin-4-ylmethyl)-1H-imidazole-5-carboxamide] | 94
CN(Cc1ccncc1)C(=O)c1cnc(SCc2cc(F)cc(F)c2F)n1-c1ccc(F)cc1 [Compound 619, 1-(4-Fluorophenyl)-N-methyl-N-(pyridin-4-ylmethyl)-2-((2,3,5-trifluorobenzyl)thio)-1H-imidazole-5-carboxamide] | 96
Cc1ccc(F)c(CSc2ncc(C(=O)N(C)Cc3ccncc3)n2-c2ccc(F)cc2)c1Cl [Compound 620, 2-((2-Chloro-6-fluoro-3-methylbenzyl)thio)-1-(4-fluorophenyl)-N-methyl-N-(pyridin-4-ylmethyl)-1H-imidazole-5-carboxamide] | 99
CN(Cc1ccncc1)C(=O)c1cnc(SCc2cccc(C(F)(F)F)c2)n1-c1ccc(F)cc1 [Compound 621, 1-(4-Fluorophenyl)-N-methyl-N-(pyridin-4-ylmethyl)-2-((3-(trifluoromethyl)benzyl)thio)-1H-imidazole-5-carboxamide] | 98
Cc1ccc(Cl)c(CSc2ncc(C(=O)N(C)Cc3ccncc3)n2-c2ccc(F)cc2)c1F [Compound 622, 2-((6-Chloro-2-fluoro-3-methylbenzyl)thio)-1-(4-fluorophenyl)-N-methyl-N-(pyridin-4-ylmethyl)-1H-imidazole-5-carboxamide] | 100
CCN(Cc1ccncc1)C(=O)c1cnc(SCc2c(Cl)ccc(OC)c2F)n1-c1ccc(F)cc1 [Compound 626, 2-((6-Chloro-2-fluoro-3-methoxybenzyl)thio)-N-ethyl-1-(4-fluorophenyl)-N-(pyridin-4-ylmethyl)-1H-imidazole-5-carboxamide] | 100
CCN(Cc1ccncc1)C(=O)c1cnc(SCc2c(Cl)ccc(C)c2F)n1-c1ccc(F)cc1 [Compound 627, 2-((6-Chloro-2-fluoro-3-methylbenzyl)thio)-N-ethyl-1-(4-fluorophenyl)-N-(pyridin-4-ylmethyl)-1H-imidazole-5-carboxamide] | 100
Cc1nn(C)cc1CN(C)C(=O)c1cnc(SCc2nc3ccccc3o2)n1-c1ccc(F)cc1 [Compound 629, 2-((Benzo[d]oxazol-2-ylmethyl)thio)-N-((1,3-dimethyl-1H-pyrazol-4-yl)methyl)-1-(4-fluorophenyl)-N-methyl-1H-imidazole-5-carboxamide] | 100
CCc1noc(CSc2ncc(C(=O)N(C)Cc3cn(C)nc3C)n2-c2ccc(F)cc2)n1 [Compound 630, N-((1,3-Dimethyl-1H-pyrazol-4-yl)methyl)-2-(((3-ethyl-1,2,4-oxadiazol-5-yl)methyl)thio)-1-(4-fluorophenyl)-N-methyl-1H-imidazole-5-carboxamide] | 98
Cc1nn(C)cc1CN(C)C(=O)c1cnc(SCc2cc(C(C)C)no2)n1-c1ccc(F)cc1 [Compound 631, N-((1,3-Dimethyl-1H-pyrazol-4-yl)methyl)-1-(4-fluorophenyl)-2-(((3-isopropylisoxazol-5-yl)methyl)thio)-N-methyl-1H-imidazole-5-carboxamide] | 97
Cc1nn(C)cc1CN(C)C(=O)c1cnc(SCc2cc3ccccn3n2)n1-c1ccc(F)cc1 [Compound 632, N-((1,3-Dimethyl-1H-pyrazol-4-yl)methyl)-1-(4-fluorophenyl)-N-methyl-2-((pyrazolo[1,5-a]pyridin-2-ylmethyl)thio)-1H-imidazole-5-carboxamide] | 100
Cc1nn(C)cc1CN(C)C(=O)c1cnc(SCc2ccn(C)n2)n1-c1ccc(F)cc1 [Compound 633, N-((1,3-Dimethyl-1H-pyrazol-4-yl)methyl)-1-(4-fluorophenyl)-N-methyl-2-(((1-methyl-1H-pyrazol-3-yl)methyl)thio)-1H-imidazole-5-carboxamide] | 93
Cc1nn(C)cc1CN(C)C(=O)c1cnc(SCc2ncn(C)n2)n1-c1ccc(F)cc1 [Compound 634, N-((1,3-Dimethyl-1H-pyrazol-4-yl)methyl)-1-(4-fluorophenyl)-N-methyl-2-(((1-methyl-1H-1,2,4-triazol-3-yl)methyl)thio)-1H-imidazole-5-carboxamide] | 91
Cc1nn(C)cc1CN(C)C(=O)c1cnc(SCc2ncccn2)n1-c1ccc(F)cc1 [Compound 635, N-((1,3-Dimethyl-1H-pyrazol-4-yl)methyl)-1-(4-fluorophenyl)-N-methyl-2-((pyrimidin-2-ylmethyl)thio)-1H-imidazole-5-carboxamide] | 98
Cc1csc(CSc2ncc(C(=O)N(C)Cc3cn(C)nc3C)n2-c2ccc(F)cc2)n1 [Compound 636, N-((1,3-Dimethyl-1H-pyrazol-4-yl)methyl)-1-(4-fluorophenyl)-N-methyl-2-(((4-methylthiazol-2-yl)methyl)thio)-1H-imidazole-5-carboxamide] | 98
CCOC(=O)CSc1ncc(C(=O)N(C)Cc2cn(C)nc2C)n1-c1ccc(F)cc1 [Compound 637, Ethyl 2-((5-(((1,3-dimethyl-1H-pyrazol-4-yl)methyl)(methyl)carbamoyl)-1-(4-fluorophenyl)-1H-imidazol-2-yl)thio)acetate] | 94

Tested on: not listed separately
Experiment: Oral glucose tolerance test in C57BL/6N mice
Assay type: in vivo
Conditions: 100 mg/kg oral, 3 g/kg glucose, percent reduction in glucose excursion (AUC 0-120 min) vs. control animals
Experimental: Male mice (8-10 week old C57BL/6N, Harlan Laboratories, Inc.) were maintained on 18% Protein Rodent diet (Teklad Global Diets, Harlan Laboratories, Inc). Overnight fasted mice were randomized into groups (n=8-10) to receive the test compounds at a dose of 100 mg/kg or the vehicle (1% CMC, 2% TWEEN 80). Compounds were delivered orally via gavage. Blood glucose levels were measured by glucometer before administration of compounds and at 30 minutes post compound. The mice were then dosed orally with 3 g/kg glucose. Blood glucose measurements were taken 20, 40, 60, 90 and 120 minutes after glucose administration. Glucose levels were plotted against time and the incremental area under the curve (AUC) of the glucose excursion was determined from T=0 to T=120 min.
(§1) Oral glucose tolerance is expressed as a percent reduction in glucose excursion of animals receiving test compound vs. control animals. Incretin activity (i.e. incretin secretion) is expressed as an x-fold increase in GLP-1 production in animals receiving test compound vs. control animals.

SMILES | Glucose Reduction (%)
Cc1cnccc1CN(C)C(=O)c1cnc(SCc2c(F)ccc(F)c2F)n1-c1ccc(F)cc1 [Compound 502, 1-(4-Fluorophenyl)-N-methyl-N-((3-methylpyridin-4-yl)methyl)-2-((2,3,6-trifluorobenzyl)thio)-1H-imidazole-5-carboxamide] | 27.7
Cc1nn(C)cc1CN(C)C(=O)c1cnc(SCc2c(F)ccc(F)c2F)n1-c1ccc(F)cc1 [Compound 505, N-((1,3-Dimethyl-1H-pyrazol-4-yl)methyl)-1-(4-fluorophenyl)-N-methyl-2-((2,3,6-trifluorobenzyl)thio)-1H-imidazole-5-carboxamide] | 27.4

Tested on: Glucagon-like peptide-1 (GLP-1)
Experiment: Total GLP-1 secretion at end of oral glucose tolerance test
Assay type: in vivo
Conditions: C57/6N mice, 100 mg/kg oral; total GLP-1 at end of OGTT vs. control animals
Experimental: The effect of test compounds on the secretion of Glucagon-like peptide-1 (GLP-1) in C57/6N mice was determined at the end of the oral glucose tolerance test. Animals were anesthetized with pentobarbital and blood collected by heart puncture in potassium EDTA-coated microtainer tubes containing 10 μl/ml DPP-IV inhibitor and 500 KIU/ml Aprotinin. Total GLP-1 was measured using Mouse/Rat Total Glucagon-like peptide-1 assay kit (Meso Scale Discovery) and MSD SECTOR2400 Imager according to the manufacturer's instructions.
as §1

SMILES | Increase in GLP-1 (Fold)
Cc1cnccc1CN(C)C(=O)c1cnc(SCc2c(F)ccc(F)c2F)n1-c1ccc(F)cc1 [Compound 502, 1-(4-Fluorophenyl)-N-methyl-N-((3-methylpyridin-4-yl)methyl)-2-((2,3,6-trifluorobenzyl)thio)-1H-imidazole-5-carboxamide] | 2.2
Cc1nn(C)cc1CN(C)C(=O)c1cnc(SCc2c(F)ccc(F)c2F)n1-c1ccc(F)cc1 [Compound 505, N-((1,3-Dimethyl-1H-pyrazol-4-yl)methyl)-1-(4-fluorophenyl)-N-methyl-2-((2,3,6-trifluorobenzyl)thio)-1H-imidazole-5-carboxamide] | 1.9

Reference: patent US8703776B2 (Cymabay Therapeutics, Inc., priority 2011, dated 2014)
